Where a SMILES comes first, the peptide text is derived from it. [ ]: non-standard residue; d: D form. Dopa = N[C@@H](Cc1ccc(O)c(O)c1)C(=O)O; Cha = N[C@@H](CC1CCCCC1)C(=O)O
Key:
[1] = system: Acropora hemprichii fragments; test: Adhesion of bigger coral fragments with IIZKDo glue to tile and 3D printed coral; type: in vivo
Description: The donor corals Acropora spp. shown in FIG. 36 were collected from the Red Sea.
In one embodiment, IIZKDo was used for the adhesion of bigger and heavier coral fragments to the 3D printed coral, which would be the situation in coral reef restoration. In gluing larger coral fragments, two different type of Acropora hemprichii were glued: some big fragments with an irregular base, and some smaller pieces with smooth base.
In one embodiment, the big fragments with irregular base and the smaller pieces with smooth base were attached to a tile. The cut small pieces of coral were attached to a special sheet for macrofragmentation so that these fragments further grew on the surface of the spreadsheet, in order to obtain fragments with a base smooth enough to stick them on the tile. After 15 days, the big fragments were still fully attached to the tile, whereas the small, flat fragments were all detached.
After verifying the best performing glue among the three DoIIZK, IIZDoK, IIZKDo, IIZKDo was selected to glue some coral fragments onto 3D printed PLA corals used for coral reef restoration project. Using a diagonal plier, the tip of each branch-like part (ca. 1.5-2.5 cm in length) of a donor Acropora hemprichii coral was gently cut to minimize damage to the coral itself. FIG. 36 illustrates the parts being cut from the donor coral. […] The initial donor coral was moved from a large shallow aquarium (230×148×140 cm) supplied with running seawater to a relatively shallow aquarium also outfitted with running seawater. While preparing the glue, the cut fragments were kept in a small shallow aquarium (72×54×29 cm) filled with sea water to not harm them until use. In the meantime, the glue was prepared by mixing IIZKDo 40 mg/mL in water and the mixture was poured on a glass slide and allowed to rest for about 5 minutes to equilibrate, as shown in FIG. 42. The cut coral fragment was removed from the aquarium, and cleaned, while moisture was allowed to absorb from the cut section with sterilized filter paper. The ceramic tile was cleaned twice with water, and then sea water to mimic the adhesion of the glue to a wet, salty surface.
A few drops of IIZKDo was applied at the surface of the cut section of the coral fragment, and the fragment was immediately glued at the surface of the tile, as shown in FIG. 43. As a control, some smaller fragments with smooth surface Acropora hemprichii, were glued using the same peptide-based glue.
The tile with attached coral fragments was placed in the original shallow aquarium (230×148×140 cm) to keep the coral in its natural environment as shown in FIG. 44 and checked after 3 days. Only the big fragments were still sticking on the tile. Therefore, only big fragments were then glued to the 3D printed poly-lactic acid (PLA) printed coral structure primed with MakerBot, which is a 3D printer based on fused deposition modeling method and grew in harsher conditions, such as in the presence of algae etc.

[2] = Rheology of peptide hydrogels (storage and loss modulus); type: physicochemical; conditions: 15 mg/mL in 1×PBS
Method: In one embodiment, the structural characteristics of these peptides also influence the rheological properties of the peptides, such as stiffness. The stiffness of the peptide hydrogels was assessed by rheology measurements. The five peptides, DoIIZK, IIZDoK, IIZKDo, IIZ(KDo)2 and IIZ(KDo)3 were dispersed in phosphate-buffered saline (1×PBS) to final concentrations of […]. Only DoIIZK and IIZKDo formed transparent hydrogels after preparation of gels onto rheology glass rings; the rest of the peptides formed grey/opaque hydrogels. This difference implies that the fibrils of peptides DoIIZK and IIZKDo had sufficient time to disperse and spread in solution before entrapping water to gel, while peptides IIZDoK, IIZ(KDo)2 and IIZ(KDo)3 gelled quickly upon fibril formation. Therefore, the rheological properties of the peptides were measured at the concentration of 15 mg/ml. […] The storage modulus and loss modulus reflect the stress response of the hydrogel in oscillatory shear. […]
Peptide hydrogels were prepared by weighing the appropriate peptide amount of the lyophilized peptide powder in 2 mL glass-vials. […] Rheological analysis mechanical properties of the formed gels were assessed by using the TA Ares-G2 Rheometer with an 8 mm titanium parallel-plate geometry. […] Time-sweep, frequency-sweep, and amplitude-sweep, were measured for each sample to explore the mechanical stiffness of the gels. […]

[3] = Big fragments with irregular base, n = 5, tile
[4] = Flat fragments with smooth base, n = 3, tile

Row | Structure (SMILES) | Survival after 15 days in the aquarium [1, 3] | Survival after attachment [1, 3] | Survival after 15 days in the aquarium [1, 4] | Survival after attachment [1, 4] | time coral fragments kept glued to a 3D printed substrate ([1]; seawater) | Storage and Loss moduli, times lower than DoIIZK and IIZKDo [2] | Storage modulus ([2]; 25° C.)
1 | CC[C@H](C)[C@H](NC(C)=O)C(=O)N[C@H](C(=O)N[C@@H](CC1CCCCC1)C(=O)N[C@@H](CCCCN)C(=O)N[C@@H](Cc1ccc(O)c(O)c1)C(N)=O)[C@@H](C)CC [IIZKDo, Ac-Ile-Ile-Cha-Lys-Dopa-NH2] (Ac-II[Cha]K[Dopa]-NH2) | 5 | 5 | 0 | 3 | several months | – | –
2 | CC[C@H](C)[C@H](NC(C)=O)C(=O)N[C@H](C(=O)N[C@@H](CC1CCCCC1)C(=O)N[C@@H](Cc1ccc(O)c(O)c1)C(=O)N[C@@H](CCCCN)C(N)=O)[C@@H](C)CC [IIZDoK, Ac-Ile-Ile-Cha-Dopa-Lys-NH2] (Ac-II[Cha][Dopa]K-NH2) | – | – | – | – | – | roughly 10 times | 2-5 kPa

Source: patent US12116421B2, “Peptide-based Dopa containing adhesive gels” (KING ABDULLAH UNIVERSITY OF SCIENCE AND TECHNOLOGY, priority 2020, dated 2024)
